According to patent US20120190703A1, “SALTS OF 13A-(S)DESOXYTYLOPHORININE, PREPARATION METHODS AND PHARMACEUTICAL COMPOSITIONS AND USES THEREOF” (priority 2009, published 2012):
Where “and” joins values, the source holds several entries; their conditions need not be identical. Equal values may be shown once. Where a name gives a salt, the structure may show the parent alone. Read-outs that look alike come from different tables or passages of the source. Marks after values point to notes of the source that are not given here.

Experiments:
H22 tumor-bearing mice [1] = test system: H22 tumor-bearing mice
Source text: To determine the pharmacodynamic characters of 13a-(S)-deoxytylophorinine and its salts, the impact of these compounds to the tumor growth in H22 tumor-bearing mice was surveyed.
Male Kunming mice were obtained from the Laboratory Animal Center, Academy of Military Medical Science. Body weight 18˜22 g. 6 animals per group, totally 10 groups, 60 animals.
(+)-13a-(S)-deoxytylophorinine, (+)-13a-(S)-deoxytylophorinine Tartrate, (+)-13a-(S)-deoxytylophorinine Maleate, (+)-13a-(S)-deoxytylophorinine Citrate, Cytoxane (CTX) as positive control.
(+)-13a-(S)-deoxytylophorinine was administered at high dose (5 mg/kg) and low dose (2.5 mg/kg). Three (+)-13a-(S)-deoxytylophorinine salts were administered at high dose and low dose as equal moles with their prototype (Tartrate: 7.05 mg/kg, 3.53 mg/kg; Malate: 6.60 mg/kg, 3.30 mg/kg; Citrate: 7.90 mg/kg, 3.95 mg/kg).
(§1) Animals were reared in SPF grade circumstance to be observed for 24 h. The tumor cells liquid which resuscitated in abdominal cavity of KM mice was diluted with aseptic normal saline at 1:3 ratio. The resulting liquid was inoculated subcutaneously at forelimb with 0.2 mL every animal. After the injection over, the animals were divided to 12 groups with 6 animals per group.
Four experimental samples were intragastric administered once daily 24 h after inoculation. The positive control CTX was intraperitoneal injected once daily. The animal body weight was recorded every day.

H22 tumor-bearing mice [2] = test system: H22 tumor-bearing mice; remark: listed apart in the source
Protocol: To observe the impact of 13a-(S)-deoxytylophorinine Sulfate: on the tumor growth of H22 tumor-bearing mice.
Male Kunming mice were obtained from the Laboratory Animal Center, Academy of Military Medical Science. Body weight 18˜22 g.
(+)-13a-(S)-deoxytylophorinine Sulfate, Cytoxane (CTX) as positive control.
All the samples were administered orally. o.d. 0.2 ml/10 g.
(+)-13a-(S)-deoxytylophorinine Sulfate was administered at five dose groups: 3 mg/kg, 4 mg/kg, 5 mg/kg, 6 mg/kg and 8 mg/kg.
as §1, with “KM species” for “KM”, “13 groups. Experimental samples were administered 24 h after inoculation.” for “12 groups with 6 animals per group.”

Solubility in water = assay type: physicochemical; details: for solubility: water
[3] = Plasma pharmacokinetics after oral administration in mice
Protocol: To determine the pharmacokinetic characters of 13a-(S)-deoxytylophorinine and its salts, the studies about plasma pharmacokinetics and the character of distribution in brain were pursued.
(§2) Male ICR mice. Body weight 18˜22 g.
(+)-13a-(S)-deoxytylophorinine Tartrate, (+)-13a-(S)-deoxytylophorinine Maleate, (+)-13a-(S)-deoxytylophorinine Citrate. All were dissolved in distilled water as 0.6 mg/ml solution before experiment progressed.
72 mice were divided to 3 groups with 24 animals per group, fasting for 16 h and drinking water freely. […] Plasma was isolated by centrifugalization. After the salts were administered orally, the brain tissues of mice were collected at 5 min, 15 min, 2 h time points. 25% tissue homogenate was prepared with normal saline addition. 200 μL of homogenate and plasma were added isovolumic MeCN to precipitate protein. 5 μL of clear supernatant was analyzed by LC/MS/MS.
(+)-13a-(S)-deoxytylophorinine was dissolved in DMSO and then diluted with MeOH with concentration 10, 50, 100, 500, 1000 and 2500 ng/ml respectively. 10 μl of standard solutions of (+)-13a-(S)-deoxytylophorinine with different concentration above were added to 200 μl of blank plasma sequently to adjust the concentration to 0.5, 2.5, 5, 25, 50, 125 ng/ml respectively. MeCN was added to the solution to precipitate protein, and 5 μl of result clear supernatant was analyzed with LC/MS/MS. Linear regression was ran with the peak area of (+)-13a-(S)-deoxytylophorinine as ordinate and the concentrations as abscissa.

[4] = Drug distribution in brain tissue after oral administration in mice; assay type: in vivo, ICR mice; details: for Brain contents of (+)-13a-(S)-deoxytylophorinine (ng/ml), Mean ± SD / Brain contents of (+)-13a-(S)-deoxytylophorinine (ng/ml), individual animals 1-3: 6 mg/kg oral
Protocol: as §2
Plasma was isolated by centrifugalization. […] 25% tissue homogenate was prepared with normal saline addition.
The drug concentration-time data in brain tissue after administered orally of (+)-13a-(S)-deoxytylophorinine tartrate, maleate and citrate were represented in Table 8˜10 and FIG. 6˜8. […] (+)-13a-(S)-deoxytylophorinine could be detected in 5 min. The peak concentration was reached after 15 min, and the compound still can be detected after 2 h after administration.

[5] = high dose × 7 d, intragastric once daily, equal moles: prototype 5.0, tartrate 7.05, maleate 6.60, citrate 7.90 mg/kg
[6] = low dose × 7 d, intragastric once daily, equal moles: prototype 2.5, tartrate 3.53, maleate 3.30, citrate 3.95 mg/kg
[7] = 6 mg/kg oral, mice, Time (min) 0.5
[8] = 6 mg/kg oral, mice, Time (min) 1
[9] = male, ICR, mouse, plasma, po, 6 mg/kg

O=P1(N(CCCl)CCCl)NCCCO1 (stereo not drawn) [CTX, Cytoxan, reference compound]
Animal No. (Initial/Final) (H22 tumor-bearing mice [1]; 100 mg/kg × 1, i.p.): 6/6
Body Weight(g) Final (H22 tumor-bearing mice [1]; 100 mg/kg × 1, i.p.): 23.77 ± 1.38 g
Body Weight(g) Initial (H22 tumor-bearing mice [1]; 100 mg/kg × 1, i.p.): 21.33 ± 1.63 g⁻¹
Inhibition (%) (H22 tumor-bearing mice [1]; 100 mg/kg × 1, i.p.): 48.47* %
Tumor Weight (g, mean ± SD) (H22 tumor-bearing mice [1]; 100 mg/kg × 1, i.p.): 0.59 ± 0.26 g
Animal No. (Initial/Final) (H22 tumor-bearing mice [2]; 100 mg/kg × 1, i.p.): 6/6
Body Weight(g) Final (H22 tumor-bearing mice [2]; 100 mg/kg × 1, i.p.): 25.00 ± 2.37 g
Body Weight(g) Initial (H22 tumor-bearing mice [2]; 100 mg/kg × 1, i.p.): 20.67 ± 2.07 g⁻¹
Inhibition (%) (H22 tumor-bearing mice [2]; 100 mg/kg × 1, i.p.): 94.76** %
Tumor Weight (g, mean ± SD) (H22 tumor-bearing mice [2]; 100 mg/kg × 1, i.p.): 0.07 ± 0.04 g

COc1ccc2c3c(c4cc(OC)c(OC)cc4c2c1)CN1CCC[C@H]1C3.O=C(O)CC(O)(CC(=O)O)C(=O)O [Citrate, (+)-13a-(S)-deoxytylophorinine Citrate]
Solubility in water (words) (Solubility in water): soluble in water
solubility (Solubility in water): 33 mg/mL
Animal No. (Initial/Final) (H22 tumor-bearing mice [1]; [5]): 6/5
Body Weight(g) Final (H22 tumor-bearing mice [1]; [5]): 14.27 ± 2.61 g
Body Weight(g) Initial (H22 tumor-bearing mice [1]; [5]): 22.00 ± 1.55 g⁻¹
Inhibition (%) (H22 tumor-bearing mice [1]; [5]): 80.44** %
Tumor Weight (g, mean ± SD) (H22 tumor-bearing mice [1]; [5]): 0.22 ± 0.13 g
Animal No. (Initial/Final) (H22 tumor-bearing mice [1]; [6]): 6/6
Body Weight(g) Final (H22 tumor-bearing mice [1]; [6]): 21.01 ± 2.04 g
Body Weight(g) Initial (H22 tumor-bearing mice [1]; [6]): 21.83 ± 0.75 g⁻¹
Inhibition (%) (H22 tumor-bearing mice [1]; [6]): 46.87* %
Tumor Weight (g, mean ± SD) (H22 tumor-bearing mice [1]; [6]): 0.61 ± 0.35 g
Peak concentration in blood ([3]; 6 mg/kg oral, mice): 20.1 ± 12.2 ng/mL
Time of peak concentration in blood ([3]; 6 mg/kg oral, mice): 15 min
t½z ([3]; 6 mg/kg oral, mice, plasma, non-compartment model): 0.86 h
Blood concentration of (+)-13a-(S)-deoxytylophorinine (ng/ml), Mean ± SD [3, 7]: 12.6 ± 6.5 ng/mL
Blood concentration of (+)-13a-(S)-deoxytylophorinine (ng/ml), individual animals 1-3 [3, 7]: 20.1 ng/mL and 8.4 ng/mL and 9.3 ng/mL
Blood concentration of (+)-13a-(S)-deoxytylophorinine (ng/ml), Mean ± SD [3, 8]: 8.4 ± 2.9 ng/mL
Blood concentration of (+)-13a-(S)-deoxytylophorinine (ng/ml), individual animals 1-3 [3, 8]: 11.2 ng/mL and 5.4 ng/mL and 8.5 ng/mL
AUC(0-inf) [3, 9]: 33.1 ng·h/mL
AUC(0-t) [3, 9]: 32.7 ng·h/mL
Cmax [3, 9]: 20.1 ng/mL
MRT inf [3, 9]: 2.29 h
MRT last [3, 9]: 1.73 h
Tmax [3, 9]: 0.25 h
Brain contents of (+)-13a-(S)-deoxytylophorinine (ng/ml), Mean ± SD ([4]; Time (min) 5): 23.6 ± 12.7 ng/mL
Brain contents of (+)-13a-(S)-deoxytylophorinine (ng/ml), individual animals 1-3 ([4]; Time (min) 5): 22.0 ng/mL and 37.1 ng/mL and 11.8 ng/mL
Brain contents of (+)-13a-(S)-deoxytylophorinine (ng/ml), Mean ± SD ([4]; Time (min) 15): 87.3 ± 50.1 ng/mL
Brain contents of (+)-13a-(S)-deoxytylophorinine (ng/ml), individual animals 1-3 ([4]; Time (min) 15): 84.8 ng/mL and 138.7 ng/mL and 38.5 ng/mL
Brain contents of (+)-13a-(S)-deoxytylophorinine (ng/ml), Mean ± SD ([4]; Time (min) 120): 48.7 ± 14.1 ng/mL
Brain contents of (+)-13a-(S)-deoxytylophorinine (ng/ml), individual animals 1-3 ([4]; Time (min) 120): 37.0 ng/mL and 44.8 ng/mL and 64.4 ng/mL
Drug contents in brain compared with prototype ([4]; oral, 3 time points): lower than its prototype

COc1ccc2c3c(c4cc(OC)c(OC)cc4c2c1)CN1CCC[C@H]1C3 [Sulfate, (+)-13a-(S)-deoxytylophorinine Sulfate]
solubility (Solubility in water): 200 mg/mL
Animal No. (Initial/Final) (H22 tumor-bearing mice [2]; 3 mg/kg × 7, oral (o.p.)): 6/6
Body Weight(g) Final (H22 tumor-bearing mice [2]; 3 mg/kg × 7, oral (o.p.)): 26.83 ± 2.56 g
Body Weight(g) Initial (H22 tumor-bearing mice [2]; 3 mg/kg × 7, oral (o.p.)): 20.67 ± 0.52 g⁻¹
Inhibition (%) (H22 tumor-bearing mice [2]; 3 mg/kg × 7, oral (o.p.)): 22.49* %
Tumor Weight (g, mean ± SD) (H22 tumor-bearing mice [2]; 3 mg/kg × 7, oral (o.p.)): 0.98 ± 0.21 g
Animal No. (Initial/Final) (H22 tumor-bearing mice [2]; 4 mg/kg × 7, oral (o.p.)): 6/6
Body Weight(g) Final (H22 tumor-bearing mice [2]; 4 mg/kg × 7, oral (o.p.)): 22.83 ± 2.40 g
Body Weight(g) Initial (H22 tumor-bearing mice [2]; 4 mg/kg × 7, oral (o.p.)): 20.00 ± 1.26 g⁻¹
Inhibition (%) (H22 tumor-bearing mice [2]; 4 mg/kg × 7, oral (o.p.)): 52.51* %
Tumor Weight (g, mean ± SD) (H22 tumor-bearing mice [2]; 4 mg/kg × 7, oral (o.p.)): 0.60 ± 0.32 g
Animal No. (Initial/Final) (H22 tumor-bearing mice [2]; 5 mg/kg × 7, oral (o.p.)): 6/6
Body Weight(g) Final (H22 tumor-bearing mice [2]; 5 mg/kg × 7, oral (o.p.)): 22.17 ± 5.31 g
Body Weight(g) Initial (H22 tumor-bearing mice [2]; 5 mg/kg × 7, oral (o.p.)): 19.83 ± 1.72 g⁻¹
Inhibition (%) (H22 tumor-bearing mice [2]; 5 mg/kg × 7, oral (o.p.)): 41.75* %
Tumor Weight (g, mean ± SD) (H22 tumor-bearing mice [2]; 5 mg/kg × 7, oral (o.p.)): 0.73 ± 0.39 g
Deaths of mice (table note) (H22 tumor-bearing mice [2]; 6 mg/kg orally): After (+)-13a-(S)-deoxytylophorinine Sulfate (6 mg/kg) was administered orally, one of mice died on sixth day, two of mice died on seventh day. Stop administion.
Animal No. (Initial/Final) (H22 tumor-bearing mice [2]; 6 mg/kg × 6, oral (o.p.)): 6/3
Body Weight(g) Final (H22 tumor-bearing mice [2]; 6 mg/kg × 6, oral (o.p.)): 15.33 ± 3.21 g
Body Weight(g) Initial (H22 tumor-bearing mice [2]; 6 mg/kg × 6, oral (o.p.)): 19.83 ± 1.72 g⁻¹
Inhibition (%) (H22 tumor-bearing mice [2]; 6 mg/kg × 6, oral (o.p.)): 68.52** %
Tumor Weight (g, mean ± SD) (H22 tumor-bearing mice [2]; 6 mg/kg × 6, oral (o.p.)): 0.40 ± 0.24 g
Deaths of mice (table note) (H22 tumor-bearing mice [2]; 8 mg/kg orally): After (+)-13a-(S)-deoxytylophorinine Sulfate (8 mg/kg) was administered orally, one of mice died on sixth day, two of mice died on seventh day. Stop administion.
Animal No. (Initial/Final) (H22 tumor-bearing mice [2]; 8 mg/kg × 6, oral (o.p.)): 6/0
Body Weight(g) Initial (H22 tumor-bearing mice [2]; 8 mg/kg × 6, oral (o.p.)): 20.67 ± 1.03 g⁻¹
Inhibition (%) (H22 tumor-bearing mice [2]; 8 mg/kg × 6, oral (o.p.)): 88.49** %
Tumor Weight (g, mean ± SD) (H22 tumor-bearing mice [2]; 8 mg/kg × 6, oral (o.p.)): 0.15 ± 0.04 g
